Results reported in US20200129528A1, “METHODS FOR TREATING BLOOD PRESSURE CONDITIONS USING AMINOSTEROL COMPOSITIONS” (Enterin, Inc., priority 2018, published 2020).

Legend:
[1] = system: mice with constipation due to overexpression of human αS; settings: oral; cited from earlier work
[2] = mice, following systemic administration; into the duodenum through the biliary tract; cited from earlier work
[3] = system: IPANs (intrinsic primary afferent neuron); settings: perfusion through lumen of isolated bowel segment; cited from earlier work
[4] = cited from earlier work
[5] = Pharmacokinetics of orally administered squalamine (ENT-01) in Stage 1; type: in vivo, human; settings: PD patients, this study
Procedure: PK data were collected on the 10 patients enrolled in Stage 1 and 10 patients enrolled in Stage 2 to determine the extent of systemic absorption. In Stage 1, PK data were obtained at each visit, pre-medication, at 1, 2, 4, 8 and 24 hours (Table 10). In Stage 2, PK was measured on days 1 and 6 of the randomization period pre-medication, at 1, 2, 4 and 8 hours (Table 11).
The mean Cmax, Tmax and T1/2 and AUC of the squalamine ion following squalamine (ENT-01) oral dosing for Stage 1 patients. The PK analyses are only approximate, as the lower limit of the validated concentration range was 10 ng/ml; most of the measured concentrations fell below that value. The mean Cmax, Tmax and T1/2 and AUC of the squalamine ion following squalamine (ENT-01) oral dosing for Stage 2 patients. The PK analyses are only approximate, as the lower limit of the validated concentration range was 0.5 ng/ml.

Structure (SMILES): CC(C)[C@@H](CC[C@@H](C)[C@H]1CC[C@H]2[C@@H]3[C@H](O)C[C@H]4C[C@@H](NCCCNCCCCN)CC[C@]4(C)[C@H]3CC[C@]12C)OS(=O)(=O)O [squalamine]
- effect on gastro-intestinal motility [1]: stimulates gastro-intestinal motility
- route of clearance [2]: cleared by the liver and excreted as the intact molecule
- effect on propulsive peristaltic contractions [3]: increasing the frequency of propulsive peristaltic contractions
- drug related GI toxicology ([4]; published clinical trials involving systemic administration): has not been reported
- effect of intravenous administration on gastrointestinal motility ([4]; systemic blood levels one thousand-fold greater than after oral dosing, prior studies): not associated with increased gastrointestinal motility
- systemic absorption following oral administration [5]: not significantly absorbed into the systemic circulation
